Reference: patent US20210395239A1 (Hoffmann-La Roche Inc., priority 2018, published 2021)

molecular target: T1, hTLR9 (Homo sapiens, UniProt Q9NR96); experiment: HEK293-Blue-hTLR-9 cells assay (SEAP reporter, ODN2006 stimulation); type: cell-based; design: host or cells: HEK293 (HEK-Blue hTLR9); settings: HEK293-Blue-hTLR9 cells, ODN2006, 20 hrs; read-out: HEK/hTLR9 IC50
T1 sequence (Q9NR96 26-1032): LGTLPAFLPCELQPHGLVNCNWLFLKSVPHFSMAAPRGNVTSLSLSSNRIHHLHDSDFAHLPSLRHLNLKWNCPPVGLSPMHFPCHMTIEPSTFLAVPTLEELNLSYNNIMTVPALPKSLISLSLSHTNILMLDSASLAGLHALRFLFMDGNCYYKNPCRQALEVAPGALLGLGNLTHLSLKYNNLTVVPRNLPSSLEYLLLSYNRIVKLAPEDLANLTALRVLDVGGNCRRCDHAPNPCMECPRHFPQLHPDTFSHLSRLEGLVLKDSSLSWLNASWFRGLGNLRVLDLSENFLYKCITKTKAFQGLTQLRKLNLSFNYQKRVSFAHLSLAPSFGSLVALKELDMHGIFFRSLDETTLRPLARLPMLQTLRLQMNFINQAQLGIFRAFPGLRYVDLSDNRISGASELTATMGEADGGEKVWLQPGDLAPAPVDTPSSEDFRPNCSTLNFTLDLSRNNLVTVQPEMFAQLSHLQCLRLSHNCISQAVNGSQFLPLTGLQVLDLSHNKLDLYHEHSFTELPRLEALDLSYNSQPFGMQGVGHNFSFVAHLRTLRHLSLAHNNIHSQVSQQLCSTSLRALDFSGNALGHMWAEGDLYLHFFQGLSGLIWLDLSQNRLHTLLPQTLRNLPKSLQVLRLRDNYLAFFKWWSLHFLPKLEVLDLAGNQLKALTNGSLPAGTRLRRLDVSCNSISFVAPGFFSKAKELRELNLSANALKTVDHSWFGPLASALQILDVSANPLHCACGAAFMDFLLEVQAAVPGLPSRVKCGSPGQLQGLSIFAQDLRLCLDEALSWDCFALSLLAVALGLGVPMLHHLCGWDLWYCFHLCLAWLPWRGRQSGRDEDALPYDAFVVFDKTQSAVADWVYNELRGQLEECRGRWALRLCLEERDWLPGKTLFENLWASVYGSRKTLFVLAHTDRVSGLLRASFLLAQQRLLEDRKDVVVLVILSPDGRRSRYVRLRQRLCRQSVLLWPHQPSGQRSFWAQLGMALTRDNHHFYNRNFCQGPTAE
Description: HEK293-Blue-hTLR-9 Cells Assay:
A stable HEK293-Blue-hTLR-9 cell line was purchased from InvivoGen (Cat. #: hkb-htlr9, San Diego, Calif., USA). These cells were originally designed for studying the stimulation of human TLR9 by monitoring the activation of NF-κB. A SEAP (secreted embryonic alkaline phosphatase) reporter gene was placed under the control of the IFN-β minimal promoter fused to five NF-κB and AP-1-binding sites. The SEAP was induced by activating NF-κB and AP-1 via stimulating HEK-Blue hTLR9 cells with TLR9 ligands. Therefore the reporter expression was declined by TLR9 antagonist under the stimulation of a ligand, such as ODN2006 (Cat. #: tlrl-2006-1, Invivogen, San Diego, Calif., USA), for incubation of 20 hrs. The cell culture supernatant SEAP reporter activity was determined using QUANTI-Blue™ kit (Cat. #: rep-qb1, Invivogen, San Diego, Calif., USA) at a wavelength of 640 nm, a detection medium that turns purple or blue in the presence of alkaline phosphatase.
HEK293-Blue-hTLR9 cells were incubated at a density of 250,000˜450,000 cells/mL in a volume of 170 μL in a 96-well plate in Dulbecco's Modified Eagle's medium (DMEM) containing 4.5 g/L glucose, 50 U/mL penicillin, […], 2 mM L-glutamine, 10% (v/v) heat-inactivated fetal bovine serum with addition of 20 μL test compound in a serial dilution in the presence of final DMSO at 1% and 10 μL of 20 uM ODN2006 in above DMEM, perform incubation under 37° C. in a CO2 incubator for 20 hrs. Then 20 μL of the supernatant from each well was incubated with 180 μL Quanti-blue substrate solution at 37° C. for 2 h and the absorbance was read at 620-655 nm using a spectrophotometer. The signaling pathway that TLR9 activation leads to downstream NF-κB activation has been widely accepted, and therefore similar reporter assay was modified for evaluating TLR9 antagonist.

Question: Which IC50 does the source give for `Cc1cc(N2C[C@@H](N)[C@@H](F)C2)nc(N2CCN(C[C@H]3CN(c4ccc(C#N)c5nccnc45)C[C@@H](C)O3)CC2)n1` [Example 115, 8-[(2S,6R)-2-[[4-[4-[(3R,4S)-3-amino-4-fluoro-pyrrolidin-1-yl]-6-methyl-pyrimidin-2-yl]piperazin-1-yl]methyl]-6-methyl-morpholin-4-yl]quinoxaline-5-carbonitrile] here?
Answer: 38 nM

Question: Which IC50 does the source give for `C[C@@H]1CN(c2ccc(C#N)c3nccnc23)C[C@H](CN2CCN(c3nccc(N4CC(N)C4)n3)CC2)O1` [Example 118, 8-[(2S,6R)-2-[[4-[4-(3-aminoazetidin-1-yl)pyrimidin-2-yl]piperazin-1-yl]methyl]-6-methyl-morpholin-4-yl]quinoxaline-5-carbonitrile] here?
Answer: 51 nM

Question: With `CO[C@@H]1CN(c2cc(C)nc(N3CCN(C[C@H]4CN(c5ccc(C#N)c6nccnc56)C[C@@H](C)O4)CC3)n2)C[C@@H]1N` [Example 120, 8-[(2S,6R)-2-[[4-[4-[(3S,4R)-3-amino-4-methoxy-pyrrolidin-1-yl]-6-methyl-pyrimidin-2-yl]piperazin-1-yl]methyl]-6-methyl-morpholin-4-yl]quinoxaline-5-carbonitrile] as the compound, how does the IC50 read?
Answer: 31 nM

Question: `CO[C@@H]1CN(c2cc(C)nc(N3CCN(C[C@H]4CN(c5ccc(C#N)c6nccnc56)C[C@@H](C)O4)CC3)n2)C[C@H]1N` [Example 121, 8-[(2S,6R)-2-[[4-[4-[(3R,4R)-3-amino-4-methoxy-pyrrolidin-1-yl]-6-methyl-pyrimidin-2-yl]piperazin-1-yl]methyl]-6-methyl-morpholin-4-yl]quinoxaline-5-carbonitrile] was tested. Which IC50 did it give?
Answer: 44 nM

Question: With `CO[C@H]1CN(c2cc(C)nc(N3CCN(C[C@H]4CN(c5ccc(C#N)c6nccnc56)C[C@@H](C)O4)CC3)n2)C[C@H]1N` [Example 122, 8-[(2S,6R)-2-[[4-[4-[(3R,4S)-3-amino-4-methoxy-pyrrolidin-1-yl]-6-methyl-pyrimidin-2-yl]piperazin-1-yl]methyl]-6-methyl-morpholin-4-yl]quinoxaline-5-carbonitrile] as the compound, how does the IC50 read?
Answer: 31 nM

Question: Which IC50 does the source give for `Cc1cc(N2CC(N)C2)nc(N2CCN(C[C@H]3CN(c4ccc(C#N)c5nccnc45)C[C@@H](C)O3)CC2)n1` [Example 123, 8-[(2S,6R)-2-[[4-[4-(3-aminoazetidin-1-yl)-6-methyl-pyrimidin-2-yl]piperazin-1-yl]methyl]-6-methyl-morpholin-4-yl]quinoxaline-5-carbonitrile] here?
Answer: 31 nM

Question: `Cc1cc(N2C[C@@H](N)[C@](C)(O)C2)nc(N2CCN(C[C@H]3CN(c4ccc(C#N)c5nccnc45)C[C@@H](C)O3)CC2)n1` [Example 125, 8-[(2S,6R)-2-[[4-[4-[(3R,4R)-4-amino-3-hydroxy-3-methyl-pyrrolidin-1-yl]-6-methyl-pyrimidin-2-yl]piperazin-1-yl]methyl]-6-methyl-morpholin-4-yl]quinoxaline-5-carbonitrile] was tested. Which IC50 did it give?
Answer: 83 nM

Question: How did the IC50 turn out when `Cc1ccc(N2C[C@H](CN3CCN(c4ccnc(N5CC6(CNCCO6)C5)n4)CC3)O[C@H](C)C2)c2nccnc12` [Example 126, 2-[4-[4-[[(2S,6R)-6-methyl-4-(8-methylquinoxalin-5-yl)morpholin-2-yl]methyl]piperazin-1-yl]pyrimidin-2-yl]-5-oxa-2,8-diazaspiro[3.5]nonane] was run?
Answer: 146 nM

Question: `Cc1ccc(N2C[C@H](CN3CCN(c4ccnc(N5CCN[C@@H](C)C5)n4)CC3)O[C@H](C)C2)c2nccnc12` [Example 127, (2R,6S)-2-methyl-6-[[4-[2-[(3S)-3-methylpiperazin-1-yl]pyrimidin-4-yl]piperazin-1-yl]methyl]-4-(8-methylquinoxalin-5-yl)morpholine] was tested. Which IC50 did it give?
Answer: 149 nM

Question: `Cc1ccc(N2C[C@H](CN3CCN(c4ccnc(N5CCN[C@H](C)C5)n4)CC3)O[C@H](C)C2)c2nccnc12` [Example 128, (2R,6S)-2-methyl-6-[[4-[2-[(3R)-3-methylpiperazin-1-yl]pyrimidin-4-yl]piperazin-1-yl]methyl]-4-(8-methylquinoxalin-5-yl)morpholine] was tested. Which IC50 did it give?
Answer: 182 nM

Question: With `Cc1ccc(N2C[C@H](CN3CCN(c4ccnc(N5C[C@H]6NCCO[C@@H]6C5)n4)CC3)O[C@H](C)C2)c2nccnc12` [Example 129, (4aR,7aR)-6-[4-[4-[[(2S,6R)-6-methyl-4-(8-methylquinoxalin-5-yl)morpholin-2-yl]methyl]piperazin-1-yl]pyrimidin-2-yl]-3,4,4a,5,7,7a-hexahydro-2H-pyrrolo[3,4-b][1,4]oxazine] as the compound, how does the IC50 read?
Answer: 171 nM

Question: How did the IC50 turn out when `Cc1ccc(N2C[C@H](CN3CCN(c4ccnc(N5CC(N)C5)n4)CC3)O[C@H](C)C2)c2nccnc12` [Example 130, 1-[4-[4-[[(2S,6R)-6-methyl-4-(8-methylquinoxalin-5-yl)morpholin-2-yl]methyl]piperazin-1-yl]pyrimidin-2-yl]azetidin-3-amine] was run?
Answer: 155 nM

Question: `[2H]c1ccc2c(N3C[C@H](CN4CCN(c5nc(OC)cc(N6CC(C)(N)C6)n5)CC4)O[C@H](C)C3)ccc(C#N)c2n1` [Example 131, 5-[(2S,6R)-2-[[4-[4-(3-amino-3-methyl-azetidin-1-yl)-6-methoxy-pyrimidin-2-yl]piperazin-1-yl]methyl]-6-methyl-morpholin-4-yl]-2-deuterio-quinoline-8-carbonitrile] was tested. Which IC50 did it give?
Answer: 113 nM

Question: How did the IC50 turn out when `[2H]c1ccc2c(N3C[C@H](CN4CCN(c5cnc(N6CC(C)(N)C6)cc5C)CC4)O[C@H](C)C3)ccc(C#N)c2n1` [Example 133, 5-[(2S,6R)-2-[[4-[6-(3-amino-3-methyl-azetidin-1-yl)-4-methyl-3-pyridyl]piperazin-1-yl]methyl]-6-methyl-morpholin-4-yl]-2-deuterio-quinoline-8-carbonitrile] was run?
Answer: 68 nM

Question: Which IC50 does the source give for `[2H]c1ccc2c(N3C[C@H](CN4CCN(c5nc(C)cc(N6CC(C)(N)C6)n5)CC4)O[C@H](C)C3)ccc(C#N)c2n1` [Example 135, 5-[(2S,6R)-2-[[4-[4-(3-amino-3-methyl-azetidin-1-yl)-6-methyl-pyrimidin-2-yl]piperazin-1-yl]methyl]-6-methyl-morpholin-4-yl]-2-deuterio-quinoline-8-carbonitrile] here?
Answer: 56 nM

Question: For `[2H]c1ccc2c(N3C[C@H](CN4CCN(c5nc(C)cc(N6CC(N)C6)n5)CC4)O[C@H](C)C3)ccc(C#N)c2n1` [Example 136, 5-[(2S,6R)-2-[[4-[4-(3-aminoazetidin-1-yl)-6-methyl-pyrimidin-2-yl]piperazin-1-yl]methyl]-6-methyl-morpholin-4-yl]-2-deuterio-quinoline-8-carbonitrile], which IC50 is on record?
Answer: 33 nM

Question: `[2H]c1ccc2c(N3C[C@H](CN4CCN(c5ccc(N6CC(C)(N)C6)nc5C)CC4)O[C@H](C)C3)ccc(C#N)c2n1` [Example 137, 5-[(2S,6R)-2-[[4-[6-(3-amino-3-methyl-azetidin-1-yl)-2-methyl-3-pyridyl]piperazin-1-yl]methyl]-6-methyl-morpholin-4-yl]-2-deuterio-quinoline-8-carbonitrile] was tested. Which IC50 did it give?
Answer: 66 nM

Question: With `[2H]c1ccc2c(N3C[C@H](CN4CC(c5ccc(N6CC(C)(N)C6)nc5)C4)O[C@H](C)C3)ccc(C#N)c2n1` [Example 138, 5-[(2S,6R)-2-[[3-[6-(3-amino-3-methyl-azetidin-1-yl)-3-pyridyl]azetidin-1-yl]methyl]-6-methyl-morpholin-4-yl]-2-deuterio-quinoline-8-carbonitrile] as the compound, how does the IC50 read?
Answer: 40 nM
